{
  "source": "ChEMBL document CHEMBL1153667",
  "about": "“6N-Cinnamoyl--naltrexamine and its p-nitro derivative. High efficacy -opioid agonists with weak antagonist actions” (Bioorg Med Chem Lett, 1996)",
  "key": {"Cavia porcellus [1]": {"organism": "Cavia porcellus", "assay": "Antagonism by the selective kappa-antagonist nor-binaltorphimine (nor-BNl) in electrically stimulated guinea-pig ileum", "assay_type": "functional"}, "[2]": {"biological_target": "T1, Kappa-type opioid receptor (Cavia porcellus, UniProt P41144)", "T1 sequence (P41144 whole entry)": "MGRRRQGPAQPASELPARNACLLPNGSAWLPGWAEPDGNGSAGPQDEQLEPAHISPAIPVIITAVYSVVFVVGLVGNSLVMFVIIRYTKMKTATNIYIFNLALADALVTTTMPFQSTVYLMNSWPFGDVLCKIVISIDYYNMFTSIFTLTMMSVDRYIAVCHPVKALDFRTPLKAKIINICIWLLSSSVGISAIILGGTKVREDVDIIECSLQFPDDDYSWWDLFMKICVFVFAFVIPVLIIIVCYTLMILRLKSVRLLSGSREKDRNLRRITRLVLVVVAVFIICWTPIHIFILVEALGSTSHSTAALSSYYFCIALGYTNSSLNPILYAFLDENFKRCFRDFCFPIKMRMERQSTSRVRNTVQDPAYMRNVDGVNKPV", "assay": "Compound was evaluated for kappa opioid receptor mediated agonistic effect in electrically stimulated guinea-pig ileum", "assay_type": "functional, tissue-based"}, "[3]": {"biological_target": "T2, Kappa-type opioid receptor (Mus musculus, UniProt P33534)", "T2 sequence (P33534 whole entry)": "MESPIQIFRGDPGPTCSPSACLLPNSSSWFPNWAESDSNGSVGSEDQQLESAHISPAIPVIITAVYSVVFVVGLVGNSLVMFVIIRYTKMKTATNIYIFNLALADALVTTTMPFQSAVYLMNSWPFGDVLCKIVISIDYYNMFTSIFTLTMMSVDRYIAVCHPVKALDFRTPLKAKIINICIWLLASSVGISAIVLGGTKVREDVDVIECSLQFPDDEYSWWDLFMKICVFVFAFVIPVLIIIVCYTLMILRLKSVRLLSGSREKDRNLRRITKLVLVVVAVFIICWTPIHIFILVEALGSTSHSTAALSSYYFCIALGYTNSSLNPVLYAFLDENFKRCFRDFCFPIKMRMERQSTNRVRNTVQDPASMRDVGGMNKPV", "assay": "Compound was evaluated for kappa opioid receptor mediated agonistic effect in mouse vas deferens(MVD) preparations", "assay_type": "functional"}, "Mus musculus": {"organism": "Mus musculus", "assay": "Antagonism by the selective kappa-antagonist nor-binaltorphimine (nor-BNl) in mouse vas deferens(MVD) preparations", "assay_type": "functional"}, "Mu-type opioid receptor": {"biological_target": "Mu-type opioid receptor (Cavia porcellus, UniProt P97266)", "sequence (P97266 whole entry)": "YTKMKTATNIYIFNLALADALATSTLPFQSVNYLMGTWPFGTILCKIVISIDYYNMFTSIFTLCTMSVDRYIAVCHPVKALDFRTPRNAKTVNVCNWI", "assay": "Compound was evaluated for binding affinity against [3H]- DAMGO labeled mu opioid receptor in guinea-pig brain homogenate.", "assay_type": "tissue-based"}, "[4]": {"biological_target": "T1, Kappa-type opioid receptor", "assay": "Compound was evaluated for binding affinity against [3H]- U-69593 labeled kappa1 opioid receptor in guinea-pig brain homogenate.", "assay_type": "tissue-based"}, "[5]": {"biological_target": "T1, Kappa-type opioid receptor", "assay": "Compound was evaluated for binding affinity against [3H]- bremazocine labeled kappa2 opioid receptor in guinea-pig brain homogenate.", "assay_type": "tissue-based"}, "[6]": {"biological_target": "T2, Kappa-type opioid receptor", "assay": "Compound was evaluated for kappa opioid receptor mediated agonistic effect in mouse vas deferens(MVD) preparations; Not an agonist", "assay_type": "functional"}, "Cavia porcellus [7]": {"organism": "Cavia porcellus", "assay": "Antagonism by the selective kappa-antagonist nor-binaltorphimine (nor-BNl) in electrically stimulated guinea-pig ileum; No inhibition", "assay_type": "functional"}},
  "note": "Activity calls are given as the source filed them. No cut-off for these calls is given here.",
  "data": [
    {"smiles": "O=C(/C=C/c1ccccc1)N[C@@H]1CC[C@@]2(O)[C@H]3Cc4ccc(O)c5c4[C@@]2(CCN3CC2CC2)[C@H]1O5", "values": [
      {"measurement": "Ke", "setting": "Cavia porcellus [1]", "result": 0.5, "unit": "nM"},
      {"measurement": "IC50", "setting": "[2]", "result": 0.4, "unit": "nM"},
      {"measurement": "IC50", "setting": "[3]", "result": 5.6, "unit": "nM"},
      {"measurement": "Ke", "setting": "Mus musculus", "result": 5.1, "unit": "nM"},
      {"measurement": "Ki", "setting": "Mu-type opioid receptor", "result": 0.07, "unit": "nM"},
      {"measurement": "Ki", "setting": "[4]", "result": 0.2, "unit": "nM"},
      {"measurement": "Ki", "setting": "[5]", "result": 12.8, "unit": "nM"}
    ]},
    {"smiles": "Cc1ccc(/C=C/C(=O)N[C@@H]2CC[C@@]3(O)[C@H]4Cc5ccc(O)c6c5C3(CCN4CC3CC3)[C@H]2O6)cc1", "values": [
      {"measurement": "Ke", "setting": "Cavia porcellus [1]", "result": 0.2, "unit": "nM"},
      {"measurement": "IC50", "setting": "[2]", "result": 12.6, "unit": "nM"},
      {"measurement": "IC50", "setting": "[3]", "result": 17100, "unit": "nM"},
      {"measurement": "Ki", "setting": "Mu-type opioid receptor", "result": 0.23, "unit": "nM"},
      {"measurement": "Ki", "setting": "[4]", "result": 0.6, "unit": "nM"},
      {"measurement": "Ki", "setting": "[5]", "result": 171, "unit": "nM"}
    ]},
    {"smiles": "O=C(/C=C/c1ccc(Cl)cc1)N[C@@H]1CC[C@@]2(O)[C@H]3Cc4ccc(O)c5c4C2(CCN3CC2CC2)[C@H]1O5", "values": [
      {"measurement": "Ke", "setting": "Cavia porcellus [1]", "result": 0.3, "unit": "nM"},
      {"measurement": "IC50", "setting": "[2]", "result": 2.2, "unit": "nM"},
      {"measurement": "IC50", "setting": "[6]", "result": "Not Active"},
      {"measurement": "Ki", "setting": "Mu-type opioid receptor", "result": 0.1, "unit": "nM"},
      {"measurement": "Ki", "setting": "[4]", "result": 0.2, "unit": "nM"},
      {"measurement": "Ki", "setting": "[5]", "result": 48.3, "unit": "nM"}
    ]},
    {"smiles": "O=C(/C=C/c1ccc([N+](=O)[O-])cc1)N[C@@H]1CC[C@@]2(O)[C@H]3Cc4ccc(O)c5c4C2(CCN3CC2CC2)[C@H]1O5", "values": [
      {"measurement": "Ke", "setting": "Cavia porcellus [7]", "result": "inactive"},
      {"measurement": "IC50", "setting": "[2]", "result": 13.4, "unit": "nM"},
      {"measurement": "IC50", "setting": "[6]", "result": "Not Active"},
      {"measurement": "Ki", "setting": "Mu-type opioid receptor", "result": 0.2, "unit": "nM"},
      {"measurement": "Ki", "setting": "[4]", "result": 0.8, "unit": "nM"},
      {"measurement": "Ki", "setting": "[5]", "result": 30.5, "unit": "nM"}
    ]}
  ]
}
